According to US11236106B2, “Cycloalkane-1,3-diamine derivative” (Daiichi Sankyo Company, Limited, priority 2018, dated 2022):
Where a name gives a salt, the structure may show the parent alone. Read-outs that look alike come from different tables or passages of the source.

How the values were obtained:
K562 cells [1] = experiment: Cell growth inhibitory activity, K562 cells (Experimental Example 7, 96-well); format: cell-based; details: Homo sapiens, 168 h, day 7, linear regression
Procedure: (§1) A solution of each concentration (MV-4-11 and MOLM-13: common ratio of 3, 9 concentrations from the final concentration of 1 μM, K562: common ratio of 3, 9 concentrations from the final concentration of 10 μM) of a drug (the compound of Example 131) or a growth medium containing 0.2% DMSO was added to each well at 50 μL/well, and the cells were cultured for additional 7 days.

MOLM-13 cells = experiment: Cell growth inhibitory activity, MOLM-13 cells (Experimental Example 7, 96-well); format: cell-based; details: Homo sapiens, 168 h, day 7, Sigmoid Emax model
Procedure: as §1

MV-4-11 cells [2] = experiment: Cell growth inhibitory activity, MV-4-11 cells (Experimental Example 7, 96-well); format: cell-based; details: Homo sapiens, MV4-11, 168 h, day 7, Sigmoid Emax model
Procedure: as §1

[3] = target: T1, menin and MLL (menin, Flag tagged; biotinylated MLL1 peptide 1-46aa) (Homo sapiens, UniProt O00255); experiment: biochemical; details: AlphaLISA, 1 nM menin, 10 nM biotinylated MLL1 peptide
T1 sequence (O00255 1-610): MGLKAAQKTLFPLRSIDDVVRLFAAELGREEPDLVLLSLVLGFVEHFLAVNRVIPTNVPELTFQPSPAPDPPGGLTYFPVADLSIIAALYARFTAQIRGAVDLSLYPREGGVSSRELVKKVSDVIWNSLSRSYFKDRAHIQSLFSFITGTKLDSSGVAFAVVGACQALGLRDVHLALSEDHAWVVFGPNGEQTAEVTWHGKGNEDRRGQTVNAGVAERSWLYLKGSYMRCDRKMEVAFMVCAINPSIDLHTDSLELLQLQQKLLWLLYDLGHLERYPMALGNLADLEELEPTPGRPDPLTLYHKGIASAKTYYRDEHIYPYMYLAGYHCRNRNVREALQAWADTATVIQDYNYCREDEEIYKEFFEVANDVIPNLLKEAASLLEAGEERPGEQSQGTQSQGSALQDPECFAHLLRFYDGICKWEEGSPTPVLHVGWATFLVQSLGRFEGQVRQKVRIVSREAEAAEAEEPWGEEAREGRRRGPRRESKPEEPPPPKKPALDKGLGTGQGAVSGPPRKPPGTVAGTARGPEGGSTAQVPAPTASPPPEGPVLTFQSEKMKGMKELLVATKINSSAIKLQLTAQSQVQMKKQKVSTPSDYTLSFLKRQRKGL
Procedure: Then, the fluorescence signal by AlphaLISA (registered trademark, PerkinElmer Co., Ltd.) was measured using a plate reader (PerkinElmer Co., Ltd., EnVisionXcite).

MV-4-11 cells [4] = experiment: Antitumor activity in MV-4-11 cell subcutaneous transplant model (Experimental Example 3-4); format: in vivo, mice; details: Exp. Ex. 3-4, oral, 32 days after transplantation
Procedure: (§2) MV-4-11 cells were purchased from ATCC. The female FOX CHASE SCID C.B.17/Icr-scid/scidJcl mice were purchased from Claire Japan. […] The compound was administered as a suspension in 0.5% MC. For the compound-free group, 0.5% MC was administered as a solvent. The estimated individual tumor volume was measured from the day of the grouping to 32 days after the transplantation (test end date).
(§3) Tumor growth inhibitory rate %=(1−TVCt/TVCc)×100 TVC=(Individual tumor volume on the test end date)−(Individual tumor volume on the grouping date) TVCt: TVC mean value of the compound administration group TVCc: TVC mean value of the compound-free group

MV-4-11 cells [5] = details: read-out: GI50, cell growth inhibitory activity, MV-4-11, day 7, cultured 7 days, assigned by order and values, Hydrochloride
Procedure: (§4) RPMI1640 medium supplemented with 10% FBS was used as a culture medium for each cells (MV-4-11, MOLM-13 cells, human AML cells, K562 cells, human CML cells). […] The prepared drug-containing plate was stored at −30° C. until use, and thawed before use.
(§5) The suspension of each cells was prepared with 10% FBS RPMI1640 culture medium so as to be 1000 cells/mL (K562) or 10000 cells/mL (MV-4-11, MOLM-13), and seeded on the drug-containing plate (40 μL/well) (day 0). The cells were cultured for additional 3 or 7 days. ATP measurement reagent (CellTiter-Glo (registered trademark, Promega Corporation) 2.0 Assay, model number G9242, Promega Corporation) was added to each well at 10 μL/well, on the day of the drug addition (day 0) and 3 days (day 3) or 7 days (day 7) after the drug addition. After affixing a black sticker on the bottom surface, the mixture was stirred using a microplate mixing deaeration machine (model name, Weltornado FK-62, Sakaki Dengyo Co., Ltd.) (stirring conditions, revolution 9, rotation 7, time 12).
(§6) The cell growth of the drug-added group from day 0 to day 3 or day 7 was calculated as T/C %, when the cell growth of the drug-free group was considered as 100%.

K562 cells [6] = experiment: cells; details: Homo sapiens, K562, 168 h, read-out: GI50, cell growth inhibitory activity, K562, day 7
Procedure: as §4, §5, §6

K562 cells [7] = details: read-out: GI50, cell growth inhibitory activity, K562, day 7, cultured 7 days, assigned by order and values
Procedure: as §4, §5, §6

[8] = test system: MLL-AF9-overexpressing AML-like cells (MA9 cells); experiment: Differentiation-inducing activity in MLL-AF9-overexpressing AML-like cells (flow cytometry of Gr-1 and cKit); format: cell-based, mouse; details: 7 days, 5 or 20 nM (Ex. 25, 27), 150 or 300 nM (Ex. 26), 50 or 100 nM (Ex. 22)
Procedure: The human MLL-AF9 fusion gene was introduced into cKit-positive mononuclear cells isolated from the myeloid of C57BL6 mouse, by retrovirus infection. MLL-AF9-overexpressing AML-like cells (MA9 cells) that acquired abnormal growth ability were established by liquid-culturing the cells after virus infection for a long period of time. Serum-free medium (GlutaMax, P/S, Stem Pro-34 medium containing 10 ng/ml mIL-3, ng/mL mSCF and 10 ng/mL human Oncostatin M) was used as a culture medium.
For the control group, DMSO was added thereto at a final concentration of 0.1% (2 μL/well) (day 0). After culturing for 7 days (day 7), the cells were collected, and blocked with 5% FBS/PBS containing 10% Mouse BD Fc Block (BD) for 10 minutes at room temperature, and then any of various antibodies (Gr-1-FITC or CD117 (cKit)-APC: Biolegend) was added thereto at a final concentration of 0.4 μg/sample, and the mixture was reacted on ice for 30 minutes. Then, dead cell staining dye DAPI (0.2 mg/mL) was added thereto at so as to be […], and the reaction was carried out on ice for additional 2 minutes under shading. Then, the expression level of each surface antigen of the cells was measured by NovoCyte flow cytometer (LMS). The obtained data were analyzed by FlowJo software (Becton Dickinson), and the rate of each surface antigen-expressing cells in the living cells excluding dead cells was graphed.

MV-4-11 cells [9] = experiment: Antitumor activity in MV-4-11 cell subcutaneous transplant model (Experimental Example 3-2); format: in vivo, mice; details: Exp. Ex. 3-2, oral, 34 days after transplantation
Procedure: as §2, with “34” for “32”
as §3

MV-4-11 cells [10] = experiment: cells; details: Homo sapiens, MV4-11, 168 h, read-out: GI50, cell growth inhibitory activity, MV-4-11, day 7
Procedure: as §4, §5, §6

OCI-AML3 cells = experiment: cells; details: Homo sapiens, OCI-AML-3, 168 h, read-out: GI50 (nM) Day 7
Procedure: The cells were purchased from Deutsche Sammlung von Mikroorganismen und Zellkulturen GmbH (DSMZ). […] The prepared drug-containing plate was stored at −30° C. until use, and thawed before use.
The suspension of the cells was prepared with 10% FBS RPMI1640 culture medium so as to be 50000 cells/mL, and seeded on the drug-containing plate (40 μL/well) (day 0). The cells were cultured for additional 7 days. ATP measurement reagent (CellTiter-Glo (registered trademark, Promega Corporation) 2.0 Assay, model number G9242, Promega Corporation) was added to each well at 10 μL/well, on the day of the drug addition (day 0) and 7 days (day 7) after the drug addition. After affixing a black sticker on the bottom surface, the mixture was stirred using a microplate mixing deaeration machine (model name, Weltornado FK-62, Sakaki Dengyo Co., Ltd.) (stirring conditions, revolution 9, rotation 7, time 12).
The cell growth of the drug-added group from day 0 to day 7 was calculated as T/C %, when the cell growth of the drug-free group was considered as 100%. GI5o was calculated by GROWTH function (exponential regression) using two concentrations sandwiching the concentration (T/C %=50%) that suppresses cell growth by 50%, and T/C %.

MV-4-11 cells [11] = details: Exp. Ex. 3-3, oral, 31 days after transplantation
Procedure: MV-4-11 cells were purchased from ATCC. The female FOX CHASE SCID C.B.17/Icr-scid/scidJcl mice were purchased from Claire Japan. […] The compound was administered as a suspension in 0.5% MC. For the compound-free group, 0.5% MC was administered as a solvent. The estimated individual tumor volume was measured from the day of the grouping to 31 days after the transplantation (test end date).

[12] = IC50, binding inhibitory activity between menin and MLL

SMILES: COc1cc(-c2ccc(CN[C@H]3C[C@@H](O)[C@@H](N(C)c4ncnc5sc(CC(F)(F)F)cc45)C3)cc2)nnc1OC [Example 131, (1R,2S,4R)-4-({[4-(5,6-dimethoxypyridazin-3-yl)phenyl]methyl}amino)-2-{methyl[6-(2,2,2-trifluoroethyl)thieno[2,3-d]pyrimidin-4-yl]amino}cyclopentan-1-ol Succinate]
- GI50 (K562 cells [1]): 9110 nM
- GI50 (MOLM-13 cells): 10.1 nM
- GI50 (MV-4-11 cells [2]): 1.97 nM

SMILES: COc1cc(-c2ccc(CN[C@H]3C[C@@H](O)[C@@H](N(C)c4ncnc5sc(CC(F)(F)F)cc45)C3)cc2)cnc1OC.Cl [Example 67, (1R,2S,4R)-4-({[4-(5,6-dimethoxypyridin-3-yl)phenyl]methyl}amino)-2-{methyl[6-(2,2,2-trifluoroethyl)thieno[2,3-d]pyrimidin-4-yl]amino}cyclopentan-1-ol hydrochloride]
- IC50 [3, 12]: 2.1 nM
- Estimated tumor volume (test end date) Mean ± S.E. (MV-4-11 cells [4]; qdx16, 25 mg/kg/day): 896 ± 56
- Estimated tumor volume (test end date) Mean ± S.E. (MV-4-11 cells [4]; qdx16, 50 mg/kg/day): 381 ± 59
- Estimated tumor volume (test end date) Mean ± S.E. (MV-4-11 cells [4]; qdx16, 100 mg/kg/day): 0 ± 0

SMILES: COc1nc(N(C)C2CC(NCC3CCC(c4cc(OC)c(OC)nn4)CC3)CC2O)c2cc(CC(F)(F)F)sc2n1 (single isomer, unassigned) [Example 128A, Hydrochloride]
- IC50 [3, 12]: 18.4 nM
- GI50 (MV-4-11 cells [5]): 728 nM
- GI50 (K562 cells [6]): > 5000 nM

SMILES: COc1nc(N(C)C2CC(NCC3CCC(c4cc(OC)c(OC)nn4)CC3)CC2O)c2cc(CC(F)(F)F)sc2n1 (single isomer, unassigned) [Example 128B, Hydrochloride]
- IC50 [3, 12]: 6.6 nM
- GI50 (K562 cells [7]): > 5000 nM

SMILES: COc1cc(-c2ccc(CN[C@H]3C[C@@H](O)[C@@H](N(C)c4ncnc5sc(CC(F)(F)F)cc45)C3)cc2)cnc1C.Cl [Example 60, (1R,2S,4R)-4-({[4-(5-methoxy-6-methylpyridin-3-yl)phenyl]methyl}amino)-2-{methyl[6-(2,2,2-trifluoroethyl)thieno[2,3-d]pyrimidin-4-yl]amino}cyclopentan-1-ol hydrochloride]
- IC50 ([3]; cell free IC50 (nM)): 2.4 nM
- Estimated tumor volume (test end date) Mean ± S.E. (MV-4-11 cells [4]; qdx16, 25 mg/kg/day): 558 ± 79
- Estimated tumor volume (test end date) Mean ± S.E. (MV-4-11 cells [4]; qdx16, 50 mg/kg/day): 25 ± 11
- Estimated tumor volume (test end date) Mean ± S.E. (MV-4-11 cells [4]; qdx16, 100 mg/kg/day): 0 ± 0

SMILES: COc1cc(-c2ccc(CN[C@H]3C[C@@H](O)[C@@H](N(C)c4ncnc5sc(CC(F)(F)F)cc45)C3)cc2)nnc1OC [Example 25, (1R,2S,4R)-4-({[4-(5,6-dimethoxypyridazin-3-yl)phenyl]methyl}amino)-2-{methyl[6-(2,2,2-trifluoroethyl)thieno[2,3-d]pyrimidin-4-yl]amino}cyclopentan-1-ol Hydrochloride]
- rate of the myeloid cell differentiation antigen Gr-1-expressing cells in living cells ([8]; versus control group (FIG. 10)): increased the rate of Gr-1-positive cells
- rate of the cKit-expressing cells in living cells ([8]; versus control group (FIG. 11)): reduced the rate of cKit-positive cells
- Estimated tumor volume (test end date) Mean ± S.E. (MV-4-11 cells [9]; qdx18, 25 mg/kg/day): 250 ± 38
- Estimated tumor volume (test end date) Mean ± S.E. (MV-4-11 cells [9]; qdx18, 50 mg/kg/day): 0 ± 0
- Estimated tumor volume (test end date) Mean ± S.E. (MV-4-11 cells [9]; qdx18, 100 mg/kg/day): 0 ± 0

SMILES: COc1nc(N(C)[C@H]2C[C@@H](NCc3ccc(-c4cc(OC)c(OC(F)F)nn4)cc3)C[C@H]2O)c2cc(CC(F)(F)F)sc2n1 [Example 119, (1R,2S,4R)-4-[({4-[6-(difluoromethoxy)-5-methoxypyridazin-3-yl]phenyl}methy)amino]-2-{[2-methoxy-6-(2,2,2-trifluoroethyl)thieno[2,3-d]pyrimidin-4-yl](methyl)amino}cyclopentan-1-ol hydrochloride]
- IC50 [3, 12]: 0.7 nM
- GI50 (MV-4-11 cells [10]): 15.7 nM
- GI50 (OCI-AML3 cells): 33 nM
- GI50 (K562 cells [6]): 859 nM

SMILES: CN(c1ncnc2sc(CC(F)(F)F)cc12)[C@H]1C[C@@H](NCc2ccc(-c3cccc4c3cnn4S(C)(=O)=O)cc2)C[C@H]1O [Example 23, (1R,2S,4R)-4-[({4-[1-(methanesulfonyl)-1H-indazol-4-yl]phenyl}methyl)amino]-2-{methyl[6-(2,2,2-trifluoroethyl)thieno[2,3-d]pyrimidin-4-yl]amino}cyclopentan-1-ol Hydrochloride]
- IC50 ([3]; cell free IC50 (nM)): 2.8 nM
- Estimated tumor volume (test end date) Mean ± S.E. (MV-4-11 cells [11]; qdx17, 25 mg/kg/day): 616 ± 86
- Estimated tumor volume (test end date) Mean ± S.E. (MV-4-11 cells [11]; qdx17, 50 mg/kg/day): 31 ± 10
- Estimated tumor volume (test end date) Mean ± S.E. (MV-4-11 cells [11]; qdx17, 100 mg/kg/day): 0 ± 0
